From ChEMBL document CHEMBL1148023, “Synthesis and antibacterial activity of derivatives of 6-O-allylic acylides” (2007)
≈ marks a conversion by molar mass, not a printed value.

Legend:
Type in all cases: functional
Streptococcus pneumoniae [1] = assay: Antibacterial activity against erythromycin-resistant Streptococcus pneumoniae 03-458 by broth microdilution method
[2] = test system: Staphylococcus epidermidis; assay: Antibacterial activity against methicillin-resistant Staphylococcus epidermidis 01-1059 by broth microdilution method
Streptococcus pneumoniae [3] = assay: Antibacterial activity against erythromycin-resistant Streptococcus pneumoniae 03-451 by broth microdilution method
Streptococcus pyogenes [4] = assay: Antibacterial activity against erythromycin-susceptible Streptococcus pyogenes 01-469 by broth microdilution method
[5] = test system: Staphylococcus epidermidis; assay: Antibacterial activity against methicillin-sensitive Staphylococcus epidermidis 01-1004 by broth microdilution method
[6] = test system: Staphylococcus epidermidis; assay: Antibacterial activity against methicillin-sensitive Staphylococcus epidermidis 01-1091 by broth microdilution method
[7] = test system: Staphylococcus epidermidis; assay: Antibacterial activity against methicillin-resistant Staphylococcus epidermidis 01-1056 by broth microdilution method
Staphylococcus aureus [8] = assay: Antibacterial activity against methicillin-resistant Staphylococcus aureus 01-429 by broth microdilution method
[9] = test system: Staphylococcus epidermidis; assay: Antibacterial activity against methicillin-resistant Staphylococcus epidermidis 01-1090 by broth microdilution method
Streptococcus pneumoniae [10] = assay: Antibacterial activity against Streptococcus pneumoniae ATCC 49619 by broth microdilution method
Streptococcus pyogenes [11] = assay: Antibacterial activity against erythromycin-susceptible Streptococcus pyogenes 01-740 by broth microdilution method
Streptococcus pneumoniae [12] = assay: Antibacterial activity against erythromycin-resistant Streptococcus pneumoniae 03-436 by broth microdilution method
Staphylococcus aureus [13] = assay: Antibacterial activity against methicillin-sensitive Staphylococcus aureus 01-481 by broth microdilution method
Staphylococcus aureus [14] = assay: Antibacterial activity against methicillin-sensitive Staphylococcus aureus 01-431 by broth microdilution method
[15] = test system: Staphylococcus epidermidis; assay: Antibacterial activity against methicillin-sensitive Staphylococcus epidermidis 01-1005 by broth microdilution method
Staphylococcus aureus [16] = assay: Antibacterial activity against methicillin-resistant Staphylococcus aureus 01-433 by broth microdilution method
Streptococcus pyogenes [17] = assay: Antibacterial activity against erythromycin-susceptible Streptococcus pyogenes 01-804 by broth microdilution method
Staphylococcus aureus [18] = assay: Antibacterial activity against methicillin-sensitive Staphylococcus aureus 01-430 by broth microdilution method
Streptococcus pyogenes [19] = assay: Antibacterial activity against erythromycin-resistant Streptococcus pyogenes 03-680 by broth microdilution method
Staphylococcus aureus [20] = assay: Antibacterial activity against methicillin-resistant Staphylococcus aureus 01-483 by broth microdilution method

SMILES | MIC (Streptococcus pneumoniae [1]) | MIC [2] | MIC (Streptococcus pneumoniae [3]) | MIC (Streptococcus pyogenes [4]) | MIC [5] | MIC [6] | MIC [7] | MIC (Staphylococcus aureus [8]) | MIC [9] | MIC (Streptococcus pneumoniae [10]) | MIC (Streptococcus pyogenes [11]) | MIC (Streptococcus pneumoniae [12]) | MIC (Staphylococcus aureus [13]) | MIC (Staphylococcus aureus [14]) | MIC [15] | MIC (Staphylococcus aureus [16]) | MIC (Streptococcus pyogenes [17]) | MIC (Staphylococcus aureus [18]) | MIC (Streptococcus pyogenes [19]) | MIC (Staphylococcus aureus [20])
C=CCO[C@@H]1C[C@@H](C)C(=O)[C@H](C)[C@H]2OC(=O)O[C@]2(C)[C@@H](CC)OC(=O)[C@H](C)[C@@H](OC(=O)COc2ccccc2)[C@H](C)[C@H]1OC1O[C@H](C)C[C@H](N(C)C)[C@H]1O (stereo not given in full) | 16 µg/mL (≈ 21 µM) | 32 µg/mL (≈ 42 µM) | 16 µg/mL (≈ 21 µM) | 0.5 µg/mL (≈ 0.656 µM) | 8 µg/mL (≈ 10.5 µM) | 8 µg/mL (≈ 10.5 µM) | 32 µg/mL (≈ 42 µM) | 32 µg/mL (≈ 42 µM) | 32 µg/mL (≈ 42 µM) | 2 µg/mL (≈ 2.62 µM) | 0.5 µg/mL (≈ 0.656 µM) | 32 µg/mL (≈ 42 µM) | 32 µg/mL (≈ 42 µM) | 16 µg/mL (≈ 21 µM) | 8 µg/mL (≈ 10.5 µM) | 32 µg/mL (≈ 42 µM) | 1 µg/mL (≈ 1.31 µM) | 16 µg/mL (≈ 21 µM) | 16 µg/mL (≈ 21 µM) | 32 µg/mL (≈ 42 µM)
C=CCO[C@@H]1C[C@@H](C)C(=O)[C@H](C)[C@H]2OC(=O)O[C@]2(C)[C@@H](CC)OC(=O)[C@H](C)[C@@H](OC(=O)Cc2cccc(F)c2)[C@H](C)[C@H]1O[C@@H]1O[C@H](C)C[C@H](N(C)C)[C@H]1O | 2 µg/mL (≈ 2.62 µM) | 2 µg/mL (≈ 2.62 µM) | 4 µg/mL (≈ 5.24 µM) | 0.125 µg/mL (≈ 0.164 µM) | 1 µg/mL (≈ 1.31 µM) | 1 µg/mL (≈ 1.31 µM) | 32 µg/mL (≈ 41.9 µM) | 16 µg/mL (≈ 20.9 µM) | 1 µg/mL (≈ 1.31 µM) | 0.125 µg/mL (≈ 0.164 µM) | 0.125 µg/mL (≈ 0.164 µM) | 8 µg/mL (≈ 10.5 µM) | 2 µg/mL (≈ 2.62 µM) | 1 µg/mL (≈ 1.31 µM) | 1 µg/mL (≈ 1.31 µM) | 16 µg/mL (≈ 20.9 µM) | 0.125 µg/mL (≈ 0.164 µM) | 1 µg/mL (≈ 1.31 µM) | 16 µg/mL (≈ 20.9 µM) | 2 µg/mL (≈ 2.62 µM)
C=CCO[C@@H]1C[C@@H](C)C(=O)[C@H](C)[C@H]2OC(=O)O[C@]2(C)[C@@H](CC)OC(=O)[C@H](C)[C@@H](OC(=O)Cc2ccc3c(c2)OCO3)[C@H](C)[C@H]1O[C@@H]1O[C@H](C)C[C@H](N(C)C)[C@H]1O | 2 µg/mL (≈ 2.53 µM) | 1 µg/mL (≈ 1.27 µM) | 4 µg/mL (≈ 5.06 µM) | 0.016 µg/mL (≈ 0.0203 µM) | 0.5 µg/mL (≈ 0.633 µM) | 0.5 µg/mL (≈ 0.633 µM) | 32 µg/mL (≈ 40.5 µM) | 32 µg/mL (≈ 40.5 µM) | 1 µg/mL (≈ 1.27 µM) | 0.062 µg/mL (≈ 0.0785 µM) | 0.016 µg/mL (≈ 0.0203 µM) | 8 µg/mL (≈ 10.1 µM) | 1 µg/mL (≈ 1.27 µM) | 0.5 µg/mL (≈ 0.633 µM) | 0.5 µg/mL (≈ 0.633 µM) | 32 µg/mL (≈ 40.5 µM) | 0.031 µg/mL (≈ 0.0392 µM) | 0.5 µg/mL (≈ 0.633 µM) | 16 µg/mL (≈ 20.3 µM) | 1 µg/mL (≈ 1.27 µM)
C=CCO[C@@H]1C[C@@H](C)C(=O)[C@H](C)[C@H]2OC(=O)O[C@]2(C)[C@@H](CC)OC(=O)[C@H](C)[C@@H](OC(=O)Cc2ccccc2Cl)[C@H](C)[C@H]1OC1O[C@H](C)C[C@H](N(C)C)[C@H]1O (stereo not given in full) | 2 µg/mL (≈ 2.56 µM) | 8 µg/mL (≈ 10.3 µM) | 4 µg/mL (≈ 5.13 µM) | 0.062 µg/mL (≈ 0.0795 µM) | 1 µg/mL (≈ 1.28 µM) | 1 µg/mL (≈ 1.28 µM) | 32 µg/mL (≈ 41 µM) | 16 µg/mL (≈ 20.5 µM) | 4 µg/mL (≈ 5.13 µM) | 0.25 µg/mL (≈ 0.32 µM) | 0.062 µg/mL (≈ 0.0795 µM) | 8 µg/mL (≈ 10.3 µM) | 4 µg/mL (≈ 5.13 µM) | 1 µg/mL (≈ 1.28 µM) | 1 µg/mL (≈ 1.28 µM) | 16 µg/mL (≈ 20.5 µM) | 0.125 µg/mL (≈ 0.16 µM) | 1 µg/mL (≈ 1.28 µM) | 16 µg/mL (≈ 20.5 µM) | 4 µg/mL (≈ 5.13 µM)
C=CCO[C@@H]1C[C@@H](C)C(=O)[C@H](C)[C@H]2OC(=O)O[C@]2(C)[C@@H](CC)OC(=O)[C@H](C)[C@@H](OC(=O)Cc2cccnc2)[C@H](C)[C@H]1O[C@@H]1O[C@H](C)C[C@H](N(C)C)[C@H]1O | 2 µg/mL (≈ 2.68 µM) | 32 µg/mL (≈ 42.8 µM) | 2 µg/mL (≈ 2.68 µM) | 0.125 µg/mL (≈ 0.167 µM) | 0.5 µg/mL (≈ 0.669 µM) | 0.5 µg/mL (≈ 0.669 µM) | 32 µg/mL (≈ 42.8 µM) | 32 µg/mL (≈ 42.8 µM) | 2 µg/mL (≈ 2.68 µM) | 0.25 µg/mL (≈ 0.335 µM) | 0.125 µg/mL (≈ 0.167 µM) | 2 µg/mL (≈ 2.68 µM) | 2 µg/mL (≈ 2.68 µM) | 1 µg/mL (≈ 1.34 µM) | 0.5 µg/mL (≈ 0.669 µM) | 32 µg/mL (≈ 42.8 µM) | 0.125 µg/mL (≈ 0.167 µM) | 1 µg/mL (≈ 1.34 µM) | 16 µg/mL (≈ 21.4 µM) | 8 µg/mL (≈ 10.7 µM)
C=CCO[C@@H]1C[C@@H](C)C(=O)[C@H](C)[C@H]2OC(=O)O[C@]2(C)[C@@H](CC)OC(=O)[C@H](C)[C@@H](OC(=O)Cc2c[nH]c3ccccc23)[C@H](C)C1O[C@@H]1O[C@H](C)C[C@H](N(C)C)[C@H]1O (stereo not given in full) | 32 µg/mL (≈ 40.8 µM) | 32 µg/mL (≈ 40.8 µM) | 16 µg/mL (≈ 20.4 µM) | 0.5 µg/mL (≈ 0.637 µM) | 4 µg/mL (≈ 5.1 µM) | 4 µg/mL (≈ 5.1 µM) | 32 µg/mL (≈ 40.8 µM) | 16 µg/mL (≈ 20.4 µM) | 32 µg/mL (≈ 40.8 µM) | 2 µg/mL (≈ 2.55 µM) | 0.5 µg/mL (≈ 0.637 µM) | 32 µg/mL (≈ 40.8 µM) | 16 µg/mL (≈ 20.4 µM) | 8 µg/mL (≈ 10.2 µM) | 4 µg/mL (≈ 5.1 µM) | 16 µg/mL (≈ 20.4 µM) | 0.5 µg/mL (≈ 0.637 µM) | 8 µg/mL (≈ 10.2 µM) | 16 µg/mL (≈ 20.4 µM) | 16 µg/mL (≈ 20.4 µM)
C=CCO[C@@H]1C[C@@H](C)C(=O)[C@H](C)[C@H]2OC(=O)O[C@]2(C)[C@@H](CC)OC(=O)[C@H](C)[C@@H](OC(=O)Cc2ccc(Cl)cc2)[C@H](C)[C@H]1OC1O[C@H](C)C[C@H](N(C)C)[C@H]1O (stereo not given in full) | 8 µg/mL (≈ 10.3 µM) | 16 µg/mL (≈ 20.5 µM) | 8 µg/mL (≈ 10.3 µM) | 0.5 µg/mL (≈ 0.641 µM) | 2 µg/mL (≈ 2.56 µM) | 2 µg/mL (≈ 2.56 µM) | 32 µg/mL (≈ 41 µM) | 16 µg/mL (≈ 20.5 µM) | 16 µg/mL (≈ 20.5 µM) | 1 µg/mL (≈ 1.28 µM) | 0.25 µg/mL (≈ 0.32 µM) | 16 µg/mL (≈ 20.5 µM) | 8 µg/mL (≈ 10.3 µM) | 4 µg/mL (≈ 5.13 µM) | 2 µg/mL (≈ 2.56 µM) | 16 µg/mL (≈ 20.5 µM) | 0.5 µg/mL (≈ 0.641 µM) | 4 µg/mL (≈ 5.13 µM) | 8 µg/mL (≈ 10.3 µM) | 16 µg/mL (≈ 20.5 µM)
C=CCO[C@@H]1C[C@@H](C)C(=O)[C@H](C)[C@H]2OC(=O)O[C@]2(C)[C@@H](CC)OC(=O)[C@H](C)[C@@H](OC(=O)CCc2c[nH]c3ccccc23)[C@H](C)[C@H]1O[C@@H]1O[C@H](C)C[C@H](N(C)C)[C@H]1O | 32 µg/mL (≈ 40.1 µM) | 32 µg/mL (≈ 40.1 µM) | 32 µg/mL (≈ 40.1 µM) | 1 µg/mL (≈ 1.25 µM) | 32 µg/mL (≈ 40.1 µM) | 32 µg/mL (≈ 40.1 µM) | 32 µg/mL (≈ 40.1 µM) | 32 µg/mL (≈ 40.1 µM) | 32 µg/mL (≈ 40.1 µM) | 4 µg/mL (≈ 5.01 µM) | 1 µg/mL (≈ 1.25 µM) | 32 µg/mL (≈ 40.1 µM) | 32 µg/mL (≈ 40.1 µM) | 32 µg/mL (≈ 40.1 µM) | 32 µg/mL (≈ 40.1 µM) | 32 µg/mL (≈ 40.1 µM) | 1 µg/mL (≈ 1.25 µM) | 32 µg/mL (≈ 40.1 µM) | 32 µg/mL (≈ 40.1 µM) | 32 µg/mL (≈ 40.1 µM)
CC[C@H]1OC(=O)[C@H](C)[C@@H](O[C@H]2C[C@@](C)(OC)[C@@H](O)[C@H](C)O2)[C@H](C)[C@@H](O[C@@H]2O[C@H](C)C[C@H](N(C)C)[C@H]2O)[C@](C)(OC)C[C@@H](C)C(=O)[C@H](C)[C@@H](O)[C@]1(C)O [CLARITHROMYCIN] | 256 µg/mL (≈ 342 µM) | 256 µg/mL (≈ 342 µM) | 32 µg/mL (≈ 42.8 µM) | 0.062 µg/mL (≈ 0.0829 µM) | 0.125 µg/mL (≈ 0.167 µM) | 0.125 µg/mL (≈ 0.167 µM) | 256 µg/mL (≈ 342 µM) | 256 µg/mL (≈ 342 µM) | 256 µg/mL (≈ 342 µM) | 0.25 µg/mL (≈ 0.334 µM) | 0.062 µg/mL (≈ 0.0829 µM) | 128 µg/mL (≈ 171 µM) | 0.5 µg/mL (≈ 0.668 µM) | 0.25 µg/mL (≈ 0.334 µM) | 0.125 µg/mL (≈ 0.167 µM) | 256 µg/mL (≈ 342 µM) | 0.125 µg/mL (≈ 0.167 µM) | 0.25 µg/mL (≈ 0.334 µM) | 256 µg/mL (≈ 342 µM) | 256 µg/mL (≈ 342 µM)
